Test results reported in PubChem BioAssay AID1259407 (Chemical Carcinogenesis Research Information System (CCRIS), 2018).
Activity calls are given as the source filed them. The rule behind the calls is not given here.

Tested on: CCRIS mutagenicity, Ames/micronucleus/aberration tests
Assay: CCRIS mutagenicity studies
[1] = Test System: AMES SALMONELLA TYPHIMURIUM, Strain/Indicator: TA98, Metabolic Activation: NONE, Method: STANDARD PLATE
[2] = Test System: AMES SALMONELLA TYPHIMURIUM, Strain/Indicator: TA98, Metabolic Activation: RAT, LIVER, S-9, AROCLOR 1254, Method: STANDARD PLATE
[3] = Test System: AMES SALMONELLA TYPHIMURIUM, Strain/Indicator: TA100, Metabolic Activation: NONE, Method: STANDARD PLATE
[4] = Test System: AMES SALMONELLA TYPHIMURIUM, Strain/Indicator: TA100, Metabolic Activation: RAT, LIVER, S-9, AROCLOR 1254, Method: STANDARD PLATE

## c1ccc(Nc2ccc3ccccc3c2)cc1
End Point: IN VITRO CHROMOSOMAL ABERRATIONS, Test System: CHINESE HAMSTER LUNG CELLS (CHL), Metabolic Activation: NONE
  mutagenic call: inactive; negative
End Point: IN VITRO CHROMOSOMAL ABERRATIONS, Test System: CHINESE HAMSTER LUNG CELLS (CHL), Metabolic Activation: RAT, LIVER, S-9, KC-400
  mutagenic call: active; positive (structural changes)
End Point: IN VITRO CHROMOSOMAL ABERRATIONS, Test System: CHINESE HAMSTER OVARY CELLS (CHO), Metabolic Activation: NONE
  mutagenic call: inactive; negative
End Point: IN VITRO CHROMOSOMAL ABERRATIONS, Test System: CHINESE HAMSTER OVARY CELLS (CHO), Metabolic Activation: RAT, LIVER, S-9, AROCLOR 1254
  mutagenic call: inactive; negative
End Point: IN VITRO CHROMOSOMAL ABERRATIONS, Test System: CHO CELLS, Metabolic Activation: NONE
  mutagenic call: inactive; negative
End Point: IN VITRO CHROMOSOMAL ABERRATIONS, Test System: CHO CELLS, Metabolic Activation: RAT, LIVER, S-9, AROCLOR 1254
  mutagenic call: inactive; negative
Test System: AMES SALMONELLA TYPHIMURIUM, Strain/Indicator: TA97, Metabolic Activation: HAMSTER, LIVER, S-9, AROCLOR 1254 (10%), Method: PREINCUBATION
  mutagenic call: inactive; negative
Test System: AMES SALMONELLA TYPHIMURIUM, Strain/Indicator: TA97, Metabolic Activation: HAMSTER, LIVER, S-9, AROCLOR 1254 (30%), Method: PREINCUBATION
  mutagenic call: inactive; negative
Test System: AMES SALMONELLA TYPHIMURIUM, Strain/Indicator: TA97, Metabolic Activation: HAMSTER, LIVER, S-9, AROCLOR 1254, Method: PREINCUBATION
  mutagenic call: inactive; negative
Test System: AMES SALMONELLA TYPHIMURIUM, Strain/Indicator: TA97, Metabolic Activation: NONE, Method: PREINCUBATION
  mutagenic call: inactive; negative
Test System: AMES SALMONELLA TYPHIMURIUM, Strain/Indicator: TA97, Metabolic Activation: RAT, LIVER, S-9, AROCLOR 1254 (10%), Method: PREINCUBATION
  mutagenic call: inactive; negative
Test System: AMES SALMONELLA TYPHIMURIUM, Strain/Indicator: TA97, Metabolic Activation: RAT, LIVER, S-9, AROCLOR 1254 (30%), Method: PREINCUBATION
  mutagenic call: inactive; negative
Test System: AMES SALMONELLA TYPHIMURIUM, Strain/Indicator: TA97, Metabolic Activation: RAT, LIVER, S-9, AROCLOR 1254, Method: PREINCUBATION
  mutagenic call: inactive; negative
Test System: AMES SALMONELLA TYPHIMURIUM, Strain/Indicator: TA98, Metabolic Activation: HAMSTER, LIVER, S-9, AROCLOR 1254 (10%), Method: PREINCUBATION
  mutagenic call: inactive; negative
Test System: AMES SALMONELLA TYPHIMURIUM, Strain/Indicator: TA98, Metabolic Activation: HAMSTER, LIVER, S-9, AROCLOR 1254 (30%), Method: PREINCUBATION
  mutagenic call: inactive; negative
Test System: AMES SALMONELLA TYPHIMURIUM, Strain/Indicator: TA98, Metabolic Activation: HAMSTER, LIVER, S-9, AROCLOR 1254, Method: PREINCUBATION
  mutagenic call: inactive; negative
Test System: AMES SALMONELLA TYPHIMURIUM, Strain/Indicator: TA98, Metabolic Activation: NONE, Method: PREINCUBATION
  mutagenic call: inactive; negative
Test System: AMES SALMONELLA TYPHIMURIUM, Strain/Indicator: TA98, Metabolic Activation: RAT, LIVER, S-9, AROCLOR 1254 (10%), Method: PREINCUBATION
  mutagenic call: inactive; negative
Test System: AMES SALMONELLA TYPHIMURIUM, Strain/Indicator: TA98, Metabolic Activation: RAT, LIVER, S-9, AROCLOR 1254 (30%), Method: PREINCUBATION
  mutagenic call: inactive; negative
Test System: AMES SALMONELLA TYPHIMURIUM, Strain/Indicator: TA98, Metabolic Activation: RAT, LIVER, S-9, AROCLOR 1254, Method: PREINCUBATION
  mutagenic call: inactive; negative
Test System: AMES SALMONELLA TYPHIMURIUM, Strain/Indicator: TA100, Metabolic Activation: HAMSTER, LIVER, S-9, AROCLOR 1254 (10%), Method: PREINCUBATION
  mutagenic call: inactive; negative
Test System: AMES SALMONELLA TYPHIMURIUM, Strain/Indicator: TA100, Metabolic Activation: HAMSTER, LIVER, S-9, AROCLOR 1254 (30%), Method: PREINCUBATION
  mutagenic call: inactive; negative
Test System: AMES SALMONELLA TYPHIMURIUM, Strain/Indicator: TA100, Metabolic Activation: HAMSTER, LIVER, S-9, AROCLOR 1254, Method: PREINCUBATION
  mutagenic call: inactive; negative
Test System: AMES SALMONELLA TYPHIMURIUM, Strain/Indicator: TA100, Metabolic Activation: NONE, Method: PREINCUBATION
  mutagenic call: inactive; negative
Test System: AMES SALMONELLA TYPHIMURIUM, Strain/Indicator: TA100, Metabolic Activation: RAT, LIVER, S-9, AROCLOR 1254 (10%), Method: PREINCUBATION
  mutagenic call: inactive; negative
Test System: AMES SALMONELLA TYPHIMURIUM, Strain/Indicator: TA100, Metabolic Activation: RAT, LIVER, S-9, AROCLOR 1254 (30%), Method: PREINCUBATION
  mutagenic call: inactive; negative
Test System: AMES SALMONELLA TYPHIMURIUM, Strain/Indicator: TA100, Metabolic Activation: RAT, LIVER, S-9, AROCLOR 1254, Method: PREINCUBATION
  mutagenic call: inactive; negative
Test System: AMES SALMONELLA TYPHIMURIUM, Strain/Indicator: TA1535, Metabolic Activation: HAMSTER, LIVER, S-9, AROCLOR 1254 (10%), Method: PREINCUBATION
  mutagenic call: inactive; negative
Test System: AMES SALMONELLA TYPHIMURIUM, Strain/Indicator: TA1535, Metabolic Activation: HAMSTER, LIVER, S-9, AROCLOR 1254 (30%), Method: PREINCUBATION
  mutagenic call: inactive; negative
Test System: AMES SALMONELLA TYPHIMURIUM, Strain/Indicator: TA1535, Metabolic Activation: HAMSTER, LIVER, S-9, AROCLOR 1254, Method: PREINCUBATION
  mutagenic call: inactive; negative
Test System: AMES SALMONELLA TYPHIMURIUM, Strain/Indicator: TA1535, Metabolic Activation: NONE, Method: PREINCUBATION
  mutagenic call: inactive; negative
Test System: AMES SALMONELLA TYPHIMURIUM, Strain/Indicator: TA1535, Metabolic Activation: RAT, LIVER, S-9, AROCLOR 1254 (10%), Method: PREINCUBATION
  mutagenic call: inactive; negative
Test System: AMES SALMONELLA TYPHIMURIUM, Strain/Indicator: TA1535, Metabolic Activation: RAT, LIVER, S-9, AROCLOR 1254 (30%), Method: PREINCUBATION
  mutagenic call: inactive; negative
Test System: AMES SALMONELLA TYPHIMURIUM, Strain/Indicator: TA1535, Metabolic Activation: RAT, LIVER, S-9, AROCLOR 1254, Method: PREINCUBATION
  mutagenic call: inactive; negative
Test System: MOUSE LYMPHOMA, Strain/Indicator: L5178Y (TK+/TK-), Metabolic Activation: NONE, Method: SUSPENSION/PLATE
  mutagenic call: inactive; negative
Test System: MOUSE LYMPHOMA, Strain/Indicator: L5178Y (TK+/TK-), Metabolic Activation: RAT, LIVER, S-9, AROCLOR 1254, Method: SUSPENSION/PLATE
  mutagenic call: active; positive

## C[C@]12CC[C@H](OC(=O)/C=C/c3cccc(N(CCCl)CCCl)c3)C[C@@H]1CC[C@@H]1[C@@H]2CC[C@]2(C)NC(=O)CC[C@@H]12
[1]
  mutagenic call: inactive; negative
[2]
  mutagenic call: inactive; negative
[3]
  mutagenic call: inactive; negative
[4]
  mutagenic call: inactive; negative
Test System: AMES SALMONELLA TYPHIMURIUM, Strain/Indicator: TA1535, Metabolic Activation: NONE, Method: STANDARD PLATE
  mutagenic call: inactive; negative
Test System: AMES SALMONELLA TYPHIMURIUM, Strain/Indicator: TA1535, Metabolic Activation: RAT, LIVER, S-9, AROCLOR 1254, Method: STANDARD PLATE
  mutagenic call: inactive; negative
Test System: AMES SALMONELLA TYPHIMURIUM, Strain/Indicator: TA1537, Metabolic Activation: NONE, Method: STANDARD PLATE
  mutagenic call: inactive; negative
Test System: AMES SALMONELLA TYPHIMURIUM, Strain/Indicator: TA1537, Metabolic Activation: RAT, LIVER, S-9, AROCLOR 1254, Method: STANDARD PLATE
  mutagenic call: inactive; negative

## Cc1ccc2cc3ccccc3cc2c1
Test System: AMES SALMONELLA TYPHIMURIUM, Strain/Indicator: TA97, Metabolic Activation: NONE, Method: STANDARD PLATE
  mutagenic call: inactive; negative
Test System: AMES SALMONELLA TYPHIMURIUM, Strain/Indicator: TA97, Metabolic Activation: RAT, LIVER, S-9, PCB, Method: STANDARD PLATE
  mutagenic call: active; positive
[1]
  mutagenic call: inactive; negative
[2]
  mutagenic call: inactive; negative
Test System: AMES SALMONELLA TYPHIMURIUM, Strain/Indicator: TA98, Metabolic Activation: RAT, LIVER, S-9, PCB, Method: STANDARD PLATE
  mutagenic call: inactive; negative
[3]
  mutagenic call: inactive; negative
[4]
  mutagenic call: inactive; negative
Test System: AMES SALMONELLA TYPHIMURIUM, Strain/Indicator: TA100, Metabolic Activation: RAT, LIVER, S-9, PCB, Method: STANDARD PLATE
  mutagenic call: inactive; negative
